Where a name gives a salt, the structure may show the parent alone.
These compounds were tested against Sodium-dependent serotonin transporter (Rattus norvegicus) (UniProt P31652) (assay: Inhibition of binding of [3H]imipramine to imipramine receptor in rat brain).
Sodium-dependent serotonin transporter (Rattus norvegicus), sequence (P31652 whole entry, looked up): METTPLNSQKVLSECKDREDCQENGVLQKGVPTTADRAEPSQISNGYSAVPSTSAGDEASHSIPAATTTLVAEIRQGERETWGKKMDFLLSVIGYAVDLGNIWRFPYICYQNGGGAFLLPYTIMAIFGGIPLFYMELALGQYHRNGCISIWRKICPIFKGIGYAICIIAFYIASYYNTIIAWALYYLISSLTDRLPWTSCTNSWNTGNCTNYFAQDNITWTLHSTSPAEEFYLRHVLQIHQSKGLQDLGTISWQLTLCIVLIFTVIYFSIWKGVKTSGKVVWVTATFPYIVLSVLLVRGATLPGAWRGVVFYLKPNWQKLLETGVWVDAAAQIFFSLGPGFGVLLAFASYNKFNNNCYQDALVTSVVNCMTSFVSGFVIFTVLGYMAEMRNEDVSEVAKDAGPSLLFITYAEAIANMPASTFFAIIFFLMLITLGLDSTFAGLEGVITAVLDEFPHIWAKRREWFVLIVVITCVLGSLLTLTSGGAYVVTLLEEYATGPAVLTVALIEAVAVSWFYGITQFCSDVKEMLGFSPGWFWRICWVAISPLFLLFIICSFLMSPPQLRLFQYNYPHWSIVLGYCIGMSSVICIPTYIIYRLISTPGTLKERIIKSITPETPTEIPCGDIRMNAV

Compound	IC50
CN(C)CC(c1cccc(Cl)c1)C1(O)CCCCC1 (stereo not given)	130 nM
CN(C)CC(c1ccccc1O)C1(O)CCCCC1 (stereo not given)	> 10000 nM
COc1ccc(C(CN(C)C)C2(O)CCCC2)cc1 (stereo not given)	126 nM
COc1ccc(C(CN(C)C)C2(O)CCCCCC2)cc1 (stereo not given)	300 nM
CN(C)CC(c1ccc([N+](=O)[O-])cc1)C1(O)CCCCC1 (stereo not given)	250 nM
COc1cccc(C(CN(C)C)C2(O)CCCC2)c1 (stereo not given)	95 nM
CN(C)CC(c1cccc(Br)c1)C1(O)CCCCC1 (stereo not given)	52 nM
CN(C)CC(c1ccc(Cl)c(Cl)c1)C1(O)CCCCC1 (stereo not given)	37 nM
CN(C)CC(c1ccc(Br)cc1)C1(O)CCCCC1 (stereo not given)	62 nM
COc1ccc(C(CN(C)C)C2(O)CCCCC2)cc1Br (stereo not given)	190 nM
CN(C)CC(c1ccc(Br)cc1)C1(O)CCC1 (stereo not given)	435 nM
CN(C)CC(c1ccc(C(F)(F)F)cc1)C1(O)CCCCC1 (stereo not given)	88 nM
COc1ccc(C(CN(C)C)C2(O)CCCCC2)cc1OC (stereo not given)	700 nM
Cc1ccc(C(CN(C)C)C2(O)CCCCC2)cc1 (stereo not given)	205 nM
CN(C)CC(c1ccc(N)cc1)C1(O)CCCCC1 (stereo not given)	> 10000 nM
COc1ccc(C(CN2CCOCC2)C2(O)CCCCC2)cc1 (stereo not given)	> 10000 nM
COc1ccc(C(CN2CCCC2)C2(O)CCCCC2)cc1 (stereo not given)	> 10000 nM
CN(C)CC(c1ccccc1Br)C1(O)CCCCC1 (stereo not given)	260 nM
COc1ccc(C(CN)C2(O)CCCCC2)cc1 (stereo not given)	900 nM
COc1ccc(C(CN(C)C)C2(O)CCCCCCC2)cc1 (stereo not given)	> 10000 nM
COc1ccc(C(CN2CCCCC2)C2(O)CCCCC2)cc1 (stereo not given)	> 10000 nM
CN(C)CC(c1ccccc1Cl)C1(O)CCCCC1 (stereo not given) [1-(1-(2-chlorophenyl)-2-(dimethylamino)ethyl)cyclohexanol]	523 nM
COc1cccc(C(CN(C)C)C2(O)CCCCC2)c1 (stereo not given) [1-(2-(dimethylamino)-1-(3-methoxyphenyl)ethyl)cyclohexanol]	150 nM
CN(C)CC(c1ccc(Cl)cc1)C1(O)CCCCC1 (stereo not given) [1-[1-(4-Chloro-phenyl)-2-dimethylamino-ethyl]-cyclohexanol (HCl)]	100 nM
CNCC(c1ccc(OC)cc1)C1(O)CCCCC1 (stereo not given) [N-Desmethylvenlafaxine]	300 nM

— BindingDB's records for doi:10.1021/jm00172a035 (Wyeth-Ayerst Research, 1990)
